The values that follow come from patent US7115632B1, “Sulfonyl aryl or heteroaryl hydroxamic acid compounds” (priority 1999, dated 2006).

Structures can show the parent of a compound that is named as a salt.

What all share (experiment): In vitro metalloprotease inhibition, fluorogenic MCA peptide substrate
What all share (format): biochemical

One experiment addresses T1, MMP-2 (Homo sapiens, UniProt P08253).
T1 construct: made in house; provided by Dr. Gregory Goldberg, Washington University
T1 sequence (P08253 110-660): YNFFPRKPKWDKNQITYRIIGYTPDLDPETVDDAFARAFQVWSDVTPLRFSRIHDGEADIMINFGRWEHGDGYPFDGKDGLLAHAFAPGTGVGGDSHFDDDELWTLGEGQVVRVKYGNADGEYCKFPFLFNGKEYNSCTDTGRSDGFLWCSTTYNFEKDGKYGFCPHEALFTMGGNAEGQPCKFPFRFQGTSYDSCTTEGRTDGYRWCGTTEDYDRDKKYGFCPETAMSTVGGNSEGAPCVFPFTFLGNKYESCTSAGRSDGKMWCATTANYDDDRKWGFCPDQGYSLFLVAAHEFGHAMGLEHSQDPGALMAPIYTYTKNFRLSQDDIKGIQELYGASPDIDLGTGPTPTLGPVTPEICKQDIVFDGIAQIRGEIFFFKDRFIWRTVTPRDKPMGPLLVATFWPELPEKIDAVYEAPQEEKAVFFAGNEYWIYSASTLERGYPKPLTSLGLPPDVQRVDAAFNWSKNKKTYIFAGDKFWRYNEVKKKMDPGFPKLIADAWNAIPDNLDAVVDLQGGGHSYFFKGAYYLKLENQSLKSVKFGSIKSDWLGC

The target in the next experiment is T2, MMP-13 (Homo sapiens, UniProt P45452).
T2 construct: made in house; host or cells: insect cells, baculovirus expression

The next experiment deals with T3, MMP-1 (Homo sapiens, UniProt P03956).
T3 construct: made in house; host or cells: transfected HT-1080 cells (provided by Dr. Harold Welgus, Washington University)
T3 sequence (P03956 100-469): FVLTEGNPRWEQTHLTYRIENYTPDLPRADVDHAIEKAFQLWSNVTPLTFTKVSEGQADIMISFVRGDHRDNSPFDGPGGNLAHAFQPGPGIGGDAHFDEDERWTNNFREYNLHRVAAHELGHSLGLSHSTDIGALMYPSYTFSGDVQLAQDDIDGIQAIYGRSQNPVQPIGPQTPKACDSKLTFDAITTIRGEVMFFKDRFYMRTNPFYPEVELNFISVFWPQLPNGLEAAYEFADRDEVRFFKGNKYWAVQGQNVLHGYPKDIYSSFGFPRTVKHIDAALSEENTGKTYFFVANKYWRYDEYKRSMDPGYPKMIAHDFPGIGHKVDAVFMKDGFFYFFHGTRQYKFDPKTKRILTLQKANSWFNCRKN

Method for MMP-13: (§1) Briefly, 4-aminophenylmercuric acetate (APMA) or trypsin-activated MMPs were incubated with various concentrations of the inhibitor compound at room temperature for 5 minutes.
(§2) The expressed enzyme was purified first over a heparin agarose column and then over a chelating zinc chloride column. The proenzyme was activated by APMA for use in the assay.
(§3) MMP-1 expressed in transfected HT-1080 cells was provided by Dr. Harold Welgus of Washington University, St. Louis, Mo. The enzyme was also activated using APMA and was then purified over a hydroxamic acid column. Dr. Welgus also provided transfected HT-1080 cells that expressed MMP-9. Transfected cells that expressed MMP-2 were provided by Dr. Gregory Goldberg, also of Washington University.
(§4) The ID50 values were calculated from those values.
Method for MMP-2: as §1, §2, §3, §4

For orientation: IC50 means the concentration at which inhibition is half-maximal. A low value points to inhibition by little substance. Turning to `O=C(NO)c1ccccc1CS(=O)(=O)c1ccc(Oc2ccccc2)cc1` [Example 1, N-hydroxy-2-[[(4-phenoxyphenyl)sulfonyl]methyl]benzamide], the IC50 at MMP-2 (Inhibition Table A) amounted to 10 nM; against MMP-13 (Inhibition Table A), 45 nM.

Turning to `O=C(Cc1ccccc1S(=O)(=O)c1ccc(Oc2ccccc2)cc1)NO` [Example 2, N-hydroxy-2-[(4-phenoxyphenyl)sulfonyl]benzeneacetamide], the half-maximal inhibitory concentration (IC50) is 900 nM against MMP-1 (Inhibition Table A), 0.3 nM at MMP-2 (Inhibition Table A) and 2 nM at MMP-13 (Inhibition Table A).

The compound `O=C(NO)c1ccccc1NS(=O)(=O)c1ccc(Oc2ccccc2)cc1` [Example 5, N-hydroxy-2-[[(4-phenoxyphenyl)sulfonyl]amino]benzamide] yielded an IC50 on MMP-2 (Inhibition Table A) of 3500 nM.

In the case of `COc1ccc(S(=O)(=O)Cc2ccccc2C(=O)NO)cc1` [Example 6], the IC50 at MMP-1 (Inhibition Table A) was above 10000 nM; against MMP-13 (Inhibition Table A), 4000 nM.

On to `O=C(NO)c1ccccc1S(=O)(=O)N1CCC(c2ccccc2)CC1` [Example 9, N-Hydroxy-2-[[4-(phenyl)-1-piperidinyl]sulfonyl]benzamide], for which the IC50 at MMP-2 (Inhibition Table A) amounted to 45 nM; against MMP-13 (Inhibition Table A), 1500 nM.

In the case of `CC(O)(C(=O)NO)c1ccccc1S(=O)(=O)N1CCC(c2ccccc2)CC1` (stereo not shown) [Example 10], the IC50 against MMP-2 (Inhibition Table A) came out at 70 nM; at MMP-13 (Inhibition Table A) it was 520 nM.

On to `O=C(NO)c1ccccc1S(=O)(=O)N1CCC(Oc2ccc(OC(F)(F)F)cc2)CC1` [Example 12, N-Hydroxy-2-[[4-[4-(trifluoromethoxy)phenoxy]-1-piperidinyl]sulfonyl]benzamide], for which, on MMP-2 (Inhibition Table A), the midpoint of inhibition, the IC50, lay at 2.2 nM.

For the compound `O=C(NO)c1ccccc1S(=O)(=O)N1CCC(Oc2ccc(C(F)(F)F)cc2)CC1` [Example 13, N-hydroxy-2-[[4-[4-(trifluoromethyl)phenoxy]-1-piperidinyl]sulfonyl]benzamide], at MMP-13 (Inhibition Table A), half-maximal inhibition (IC50) was put at 28.5 nM.

Regarding `COc1ccc(S(=O)(=O)N2CCC(Oc3ccc(C(F)(F)F)cc3)CC2)c(C(=O)NO)c1OC` [Example 16, N-Hydroxy-2,3-dimethoxy-6-[[4-[4-(trifluoromethyl)phenoxy]-1-piperidinyl)sulfonyl]benzamide], the IC50 was 2.4 nM against MMP-2 (Inhibition Table A) and 2.7 nM on MMP-13 (Inhibition Table A).

The compound `O=C(NO)c1c(F)cccc1S(=O)(=O)N1CCC(Oc2ccc(C(F)(F)F)cc2)CC1` [Example 19, 2-Fluoro-N-hydroxy-6-[[4-[4-(trifluoromethyl)phenoxy]-1-piperidinyl]sulfonyl]benzamide] displayed an IC50 on MMP-2 (Inhibition Table A) of 5 nM.

On to `O=C(NO)c1c(Cl)cccc1S(=O)(=O)N1CCC(Oc2ccc(C(F)(F)F)cc2)CC1` [Example 20, 2-Chloro-N-hydroxy-6-[[4-[4-(trifluoromethyl)phenoxy]-1-piperidinyl]sulfonyl]benzamide], for which the IC50 is above 10000 nM on MMP-1 (Inhibition Table A), 1.8 nM against MMP-2 (Inhibition Table A) and 14.8 nM at MMP-13 (Inhibition Table A).

With `O=C(NO)c1ccccc1S(=O)(=O)N1CCC(Oc2ccncc2)CC1` [Example 21, N-Hydroxy-2-[[4-(4-pyridinyloxy)-1-piperidinyl]sulfonyl]benzamide], the IC50 was above 10000 nM at MMP-1 (Inhibition Table A), 5.9 nM at MMP-2 (Inhibition Table A) and 63 nM against MMP-13 (Inhibition Table A).

Turning to `COCCOc1cccc(S(=O)(=O)N2CCC(Oc3ccc(C(F)(F)F)cc3)CC2)c1C(=O)NO` [Example 23, N-Hydroxy-2-(2-methoxyethoxy)-6-[[4-[4-(trifluoromethyl)phenoxy]-1-piperidinyl]sulfonyl]benzamide], the figures for the IC50 at MMP-2 (Inhibition Table B) and on MMP-13 (Inhibition Table B) were 1 nM and 4.3 nM, respectively.

Turning to `COc1ccc(S(=O)(=O)N2CCC(Oc3ccc(-c4ccccc4)cc3)CC2)c(C(=O)NO)c1OC` [Example 28], the values for the half-maximal inhibitory concentration (IC50) on MMP-1 (Inhibition Table B), against MMP-2 (Inhibition Table B) and against MMP-13 (Inhibition Table B) were above 10000 nM, 0.4 nM and 1.8 nM, respectively.

Turning to `O=C(NO)c1ccccc1S(=O)(=O)N1CCC(n2c(=O)[nH]c3ccccc32)CC1` [Example 29, 2-[[4-(2,3-Dihydro-2-oxo-1H-benzimidazol-1-yl)-1-piperidinyl]sulfonyl]-N-hydroxybenzamide], the IC50 against MMP-1 (Inhibition Table B) was above 10000 nM; against MMP-2 (Inhibition Table B) it was 370 nM; against MMP-13 (Inhibition Table B), 2000 nM.

In the case of `COC1CCN(S(=O)(=O)c2ccc3c(c2C(=O)NO)OCCO3)CC1` [Example 30, 2,3-Dihydro-N-hydroxy-6-[(4-methoxy-1-piperidinyl)sulfonyl]-1,4-benzodioxin-5-carboxamide], the IC50 at MMP-1 (Inhibition Table B), on MMP-2 (Inhibition Table B) and against MMP-13 (Inhibition Table B) was above 10000 nM throughout.

Consider `O=C(NO)c1c(S(=O)(=O)N2CCC(Oc3ccc(C(F)(F)F)cc3)CC2)ccc2c1OCCO2` [Example 31], for which the results for the IC50 against MMP-1 (Inhibition Table B), on MMP-2 (Inhibition Table B) and at MMP-13 (Inhibition Table B) were above 10000 nM, 1.4 nM and 7.7 nM, respectively.

Regarding `O=C(NO)c1c(Cl)sc(Cl)c1S(=O)(=O)N1CCC(Oc2ccc(C(F)(F)F)cc2)CC1` [Example 32, 2,5-Dichloro-N-hydroxy-4-[[4-{4-(trifluoromethyl)phenoxy]-1-piperidinyl]sulfonyl]-3-thiophenecarboxamide], the values for the IC50 at MMP-1 (Inhibition Table B), on MMP-2 (Inhibition Table B) and at MMP-13 (Inhibition Table B) were above 10000 nM, 110 nM and 730 nM, respectively.

For the compound `COc1ccccc1OC1CCN(S(=O)(=O)c2ccc(OC)c(OC)c2C(=O)NO)CC1` [Example 34, N-Hydroxy-2,3-dimethoxy-6-[[4-(2-methoxyphenoxy)-1-piperidinyl]sulfonyl]benzamide], the IC50 is above 10000 nM at MMP-1 (Inhibition Table B), 330 nM on MMP-2 (Inhibition Table B) and 2500 nM against MMP-13 (Inhibition Table B).

In the case of `COc1ccc(OC)c(S(=O)(=O)N2CCC(Oc3ccc(C(F)(F)F)cc3)CC2)c1C(=O)NO` [Example 35], the figures for the IC50 at MMP-1 (Inhibition Table B), at MMP-2 (Inhibition Table B) and against MMP-13 (Inhibition Table B) were above 10000 nM, 21 nM and 110 nM, respectively.

Turning to `O=C(NO)c1ccccc1S(=O)(=O)N1CCC(Oc2ccccn2)CC1` [Example 42, N-hydroxyl-2-[[4-(2-pyridinyloxy)-1-piperidinyl]sulfonyl]benzamide, monohydrochloride], the figures for the IC50 on MMP-2 (Inhibition Table B) and against MMP-13 (Inhibition Table B) were 42 nM and 1200 nM, respectively.

As for `CCCCOC1CCN(S(=O)(=O)c2ccc3c(c2C(=O)NO)OCO3)CC1` [Example 43, 5-[(4-Butoxy-1-piperidinyl)sulfonyl]-N-hydroxy-1,3-benzodioxole-4-carboxamide], the IC50 on MMP-1 (Inhibition Table B) was above 10000 nM; at MMP-2 (Inhibition Table B) it was 200 nM; against MMP-13 (Inhibition Table B), 3700 nM.

Regarding `CCCCCCCOC1CCN(S(=O)(=O)c2ccc3c(c2C(=O)NO)OCO3)CC1` [Example 44, 5-[(4-Heptyloxy-1-piperidinyl)sulfonyl]-N-hydroxy-1,3-benzodioxole-4-carboxamide], the values for the IC50 on MMP-1 (Inhibition Table B), on MMP-2 (Inhibition Table B) and against MMP-13 (Inhibition Table B) were above 10000 nM, 206 nM and 330 nM, respectively.

With `COc1ccc(S(=O)(=O)N2CCC(Oc3ccc(Cl)cc3)CC2)c(C(=O)NO)c1OC` [Example 46, 6-[[4-(4-Chlorophenoxy)-1-piperidinyl]sulfonyl]-N-hydroxy-2,3-dimethoxybenzamide], the results for the IC50 on MMP-1 (Inhibition Table B), against MMP-2 (Inhibition Table B) and on MMP-13 (Inhibition Table B) were above 10000 nM, 0.3 nM and 1.5 nM, respectively.

For `COc1ccc(S(=O)(=O)N2CCC(Oc3ccccc3)CC2)c(C(=O)NO)c1OC` [Example 47, N-Hydroxy-2,3-dimethoxy-6-[(4-phenoxy-1-piperidinyl)sulfonyl]benzamide], the IC50 on MMP-1 (Inhibition Table B) is above 10000 nM; on MMP-2 (Inhibition Table B) it was 1.1 nM; on MMP-13 (Inhibition Table B), 6.7 nM.

With `O=C(NO)c1c(OC2CCOCC2)cccc1S(=O)(=O)N1CCC(Oc2ccc(C(F)(F)F)cc2)CC1` [Example 48], the IC50 against MMP-1 (Inhibition Table B) is above 10000 nM; at MMP-2 (Inhibition Table B) it was 1 nM; against MMP-13 (Inhibition Table B), 2.2 nM.

For the compound `O=C(NO)c1c(S(=O)(=O)N2CCC(Oc3ccc4c(c3)OCO4)CC2)ccc2c1OCO2` [Example 49, 5-[[4-((1,3-Benzodioxol]-5-yloxy)-1-piperidinyl]sulfonyl]-N-hydroxy-1,3-benzodioxole-4-carboxamide], the values for the IC50 at MMP-1 (Inhibition Table B), at MMP-2 (Inhibition Table B) and against MMP-13 (Inhibition Table B) were above 10000 nM, 1.1 nM and 19 nM, respectively.

For the compound `O=C(NO)c1ccccc1S(=O)(=O)N1CCN(C(=O)c2ccccc2)CC1` [Example 51, 2-[(4-Benzoyl-1-piperazinyl)sulfonyl]-N-hydroxybenzamide], on MMP-1 (Inhibition Table B), the IC50 was above 10000 nM.

Turning to `COc1ccc(S(=O)(=O)N2CCN(Cc3ccc(OC(F)(F)F)cc3)CC2)c(C(=O)NO)c1OC` [Example 53, N-Hydroxy-2,3-dimethoxy-6-[[4-[[4-(trifluoromethoxy)phenyl]methyl]-1-piperazinyl]sulfonyl]benzamide, monohydrochloride], the IC50 is above 10000 nM against MMP-1 (Inhibition Table B), 240 nM against MMP-2 (Inhibition Table B) and 1900 nM on MMP-13 (Inhibition Table B).
